# According to patent US9315490B2, “2,5-substituted pyrimidines” (Grünenthal GmbH, priority 2014, dated 2016):
# Target: T1, human PDE4B1 (Homo sapiens, UniProt Q07343)
# T1 construct: host or cells: Sf9 cells
# Assay: cAMP HTRF assay to determine the activity of hPDE4B1
# Format: biochemical
# Settings: inhibition of PDE4B at a test concentration of 1 μM
# Experimental: Biological Testing cAMP HTRF® Assay to Determine the Activity of hPDE4B1
# The inhibiting effect of the compounds on the enzyme activity of human PDE4B1 was measured by the quantification of 5′-adenosine monophosphate (5′-AMP), which is formed from 3′,5′-cyclic adenosine monophosphate (cAMP). Human recombinant enzyme, expressed in Sf9 cells, and the HTRF (homogeneous time-resolved fluorescence) detection method were used in the assay.
# The test compound or water (control) was mixed with the human recombinant PDE4B1 enzyme (4.8 U) in a buffer consisting of 44.4 mM tris-HCl, 5.28 mM MgCl2, 2.64 mM DTT and 0.044% Tween 20 (pH 7.8). After adding the cAMP enzyme substrate (final concentration 40 nM), the mixture was incubated for 30 minutes at room temperature. Then a fluorescence acceptor (Dye2 marked with cAMP), a fluorescence donor (anti-cAMP antibody marked with a europium cryptate) and the non-specific phosphodiesterase inhibitor IBMX (3-isobutyl-1-methylxanthine; final concentration 1 mM) were added. After 60 minutes the fluorescence transfer, which correlates with the amount of remaining cAMP, was measured with a microplate reader (Rubystar, BMG) at λex=337 nm, λem=620 nm and λem=665 nm. The enzyme activity was calculated from the quotient formed from the measured signal at 665 nm and that at 620 nm. The result was expressed as the percentage inhibition of enzyme activity of the control (without PDE4 inhibitor). The enzyme was omitted for measurement of the basal control. IC50 values (IC50=concentration causing a half-maximal inhibition of control specific activity) were derived from dose response measurements with eight different concentrations (n=2; N=1-3).
# Literature: N. Saldou et al., Comparison of recombinant human PDE4 isoforms: interaction with substrate and inhibitors, Cell. Signal. Vol. 10, No. 6, 427-440, 1998
# T1 sequence (Q07343 whole entry): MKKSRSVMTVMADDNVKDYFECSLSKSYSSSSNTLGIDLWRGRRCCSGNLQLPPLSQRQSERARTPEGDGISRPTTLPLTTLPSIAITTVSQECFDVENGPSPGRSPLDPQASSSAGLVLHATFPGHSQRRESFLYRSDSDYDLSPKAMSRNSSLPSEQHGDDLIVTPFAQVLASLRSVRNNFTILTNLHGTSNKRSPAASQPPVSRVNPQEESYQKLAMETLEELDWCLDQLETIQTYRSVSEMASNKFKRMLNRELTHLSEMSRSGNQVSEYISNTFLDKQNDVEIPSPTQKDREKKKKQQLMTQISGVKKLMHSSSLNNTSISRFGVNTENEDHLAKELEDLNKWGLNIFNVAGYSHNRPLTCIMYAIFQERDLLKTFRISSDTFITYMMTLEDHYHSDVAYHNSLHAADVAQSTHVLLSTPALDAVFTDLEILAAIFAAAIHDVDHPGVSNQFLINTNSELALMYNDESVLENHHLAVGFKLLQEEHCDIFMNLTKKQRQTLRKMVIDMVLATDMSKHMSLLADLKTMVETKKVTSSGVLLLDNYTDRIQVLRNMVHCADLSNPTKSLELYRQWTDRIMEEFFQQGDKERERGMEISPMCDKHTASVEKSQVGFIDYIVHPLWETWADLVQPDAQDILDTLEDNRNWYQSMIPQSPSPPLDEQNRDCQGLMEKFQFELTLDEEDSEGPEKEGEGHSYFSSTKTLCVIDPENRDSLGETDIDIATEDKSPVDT
Structure (SMILES),inhibition at 1 µM [%],Inhibition in % [%]
"Cc1ccnc(-c2cnc(-n3cc([S+](C)[O-])c4ccc(C(=O)N5CCOCC5)cc43)nc2)c1 (racemic) [Example 142, (1-(5-(4-methylpyridin-2-yl)pyrimidin-2-yl)-3-(methylsulfinyl)-1H-indol-6-yl)(morpholino)methanone]",110,–
"Cc1cccc(-c2cnc(-n3cc([S+](C)[O-])c4ccc(C(=O)N5CCOCC5)cc43)nc2)c1 (single isomer, unassigned) [Example 154, (3-(Methylsulfinyl)-1-(5-(m-tolyl)pyrimidin-2-yl)-1H-indol-6-yl)(morpholino)methanone]",98,–
"COc1ccc(F)c(-c2cnc(-n3cc([S+](C)[O-])c4ccc(C(=O)N5CCOCC5)cc43)nc2)c1 (single isomer, unassigned) [Example 160, (1-(5-(2-Fluoro-5-methoxyphenyl)pyrimidin-2-yl)-3-(methylsulfinyl)-1H-indol-6-yl)(morpholino)methanone]",107,–
"C[S+]([O-])c1cn(-c2ncc(-c3ccccc3)cn2)c2cc(C(=O)N3CCOCC3)ccc12 (single isomer, unassigned) [Example 163, (3-(Methylsulfinyl)-1-(5-phenylpyrimidin-2-yl)-1H-indol-6-yl)(morpholino)methanone]",104,–
"C[S+]([O-])c1cn(-c2ncc(-c3ccccc3F)cn2)c2cc(C(=O)N3CCOCC3)ccc12 (single isomer, unassigned) [Example 165, (1-(5-(2-Fluorophenyl)pyrimidin-2-yl)-3-(methylsulfinyl)-1H-indol-6-yl)(morpholino)methanone]",105,–
"COc1ccc(F)c(-c2cnc(-n3cc([S+](C)[O-])c4ccc(C(=O)N5CCNC(=O)C5)cc43)nc2)c1 (single isomer, unassigned) [Example 213, 4-(1-(5-(2-Fluoro-5-methoxyphenyl)pyrimidin-2-yl)-3-(methylsulfinyl)-1H-indole-6-carbonyl)piperazin-2-one]",106,–
"Cc1cccc(-c2cnc(-n3cc([S+](C)[O-])c4ccc(C(=O)N5CCNC(=O)C5)cc43)nc2)c1 (single isomer, unassigned) [Example 215, 4-(3-(Methylsulfinyl)-1-(5-(m-tolyl)pyrimidin-2-yl)-1H-indole-6-carbonyl)piperazin-2-one]",110,–
"COc1cccc(-c2cnc(-n3cc([S+](C)[O-])c4ccc(C(=O)N5CCNC(=O)C5)cc43)nc2)c1 (single isomer, unassigned) [Example 217, 4-(1-(5-(3-Methoxyphenyl)pyrimidin-2-yl)-3-(methylsulfinyl)-1H-indole-6-carbonyl)piperazin-2-one]",109,–
"CC(O)c1cn(-c2ncc(-c3ccccc3)cn2)c2cc(C(=O)N3CCOCC3)ccc12 (single isomer, unassigned) [Example 254, (3-(1-Hydroxyethyl)-1-(5-phenylpyrimidin-2-yl)-1H-indol-6-yl)(morpholino)methanone]",95,–
"CC(O)c1cn(-c2ncc(-c3ccccc3)cn2)c2cc(C(=O)N3CCOCC3)ccc12 (single isomer, unassigned) [Example 255, (3-(1-Hydroxyethyl)-1-(5-phenylpyrimidin-2-yl)-1H-indol-6-yl)(morpholino)methanone]",–,95
"CC1CC(C)CN(C(=O)c2ccc3c([S+](C)[O-])cn(-c4ncc(-c5ccccc5F)cn4)c3c2)C1 (single isomer, unassigned) [Example 372, (3,5-Dimethylpiperidin-1-yl)(1-(5-(2-fluorophenyl)pyrimidin-2-yl)-3-(methylsulfinyl)-1H-indol-6-yl)methanone]",40,–
"C[S+]([O-])c1cn(-c2ncc(-c3ccccc3F)cn2)c2cc(C(=O)N3CCOCC3)ccc12 (stereo not drawn) [Example 1, (1-(5-(2-fluorophenyl)pyrimidin-2-yl)-3-(methylsulfinyl)-1H-indol-6-yl)(morpholino)methanone]",104,–
"C[S+]([O-])c1cn(-c2ncc(-c3ccc(C(N)=O)cc3F)cn2)c2cc(C(=O)N3CCNCC3)ccc12 (stereo not drawn) [Example 15, 3-Fluoro-4-(2-(3-(methylsulfinyl)-6-(piperazine-1-carbonyl)-1H-indol-1-yl)pyrimidin-5-yl)benzamide]",44,–

# Same assay, conditions: inhibition of PDE4B at a test concentration of 1 μM, 1 µM
row,Structure (SMILES),Inhibition in % [%]
1,"Cc1cccc(-c2cnc(-n3cc([S+](C)[O-])c4ccc(C(=O)N5CCOCC5)cc43)nc2)c1 (single isomer, unassigned) [Example 155, (3-(Methylsulfinyl)-1-(5-(m-tolyl)pyrimidin-2-yl)-1H-indol-6-yl)(morpholino)methanone]",97
2,"COc1cccc(-c2cnc(-n3cc([S+](C)[O-])c4ccc(C(=O)N5CCOCC5)cc43)nc2)c1 (single isomer, unassigned) [Example 157, (1-(5-(3-Methoxyphenyl)pyrimidin-2-yl)-3-(methylsulfinyl)-1H-indol-6-yl)(morpholino)methanone]",81
3,"COc1cccc(-c2cnc(-n3cc([S+](C)[O-])c4ccc(C(=O)N5CCOCC5)cc43)nc2)c1 (single isomer, unassigned) [Example 158, (1-(5-(3-Methoxyphenyl)pyrimidin-2-yl)-3-(methylsulfinyl)-1H-indol-6-yl)(morpholino)methanone]",104
4,"COc1ccc(F)c(-c2cnc(-n3cc([S+](C)[O-])c4ccc(C(=O)N5CCOCC5)cc43)nc2)c1 (single isomer, unassigned) [Example 161, (1-(5-(2-Fluoro-5-methoxyphenyl)pyrimidin-2-yl)-3-(methylsulfinyl)-1H-indol-6-yl)(morpholino)methanone]",109
5,"C[S+]([O-])c1cn(-c2ncc(-c3ccccc3)cn2)c2cc(C(=O)N3CCOCC3)ccc12 (single isomer, unassigned) [Example 164, (3-(Methylsulfinyl)-1-(5-phenylpyrimidin-2-yl)-1H-indol-6-yl)(morpholino)methanone]",92
6,"C[S+]([O-])c1cn(-c2ncc(-c3ccccc3F)cn2)c2cc(C(=O)N3CCOCC3)ccc12 (single isomer, unassigned) [Example 166, (1-(5-(2-Fluorophenyl)pyrimidin-2-yl)-3-(methylsulfinyl)-1H-indol-6-yl)(morpholino)methanone]",93
7,"COc1ccc(F)c(-c2cnc(-n3cc([S+](C)[O-])c4ccc(C(=O)N5CCNC(=O)C5)cc43)nc2)c1 (single isomer, unassigned) [Example 214, 4-(1-(5-(2-Fluoro-5-methoxyphenyl)pyrimidin-2-yl)-3-(methylsulfinyl)-1H-indole-6-carbonyl)piperazin-2-one]",92
8,"Cc1cccc(-c2cnc(-n3cc([S+](C)[O-])c4ccc(C(=O)N5CCNC(=O)C5)cc43)nc2)c1 (single isomer, unassigned) [Example 216, 4-(3-(Methylsulfinyl)-1-(5-(m-tolyl)pyrimidin-2-yl)-1H-indole-6-carbonyl)piperazin-2-one]",94
9,"COc1cccc(-c2cnc(-n3cc([S+](C)[O-])c4ccc(C(=O)N5CCNC(=O)C5)cc43)nc2)c1 (single isomer, unassigned) [Example 218, 4-(1-(5-(3-Methoxyphenyl)pyrimidin-2-yl)-3-(methylsulfinyl)-1H-indole-6-carbonyl)piperazin-2-one]",98
10,"CC(O)c1cn(-c2ncc(-c3ccccc3F)cn2)c2cc(C(=O)N3CCOCC3)ccc12 (single isomer, unassigned) [Example 252, (1-(5-(2-Fluorophenyl)pyrimidin-2-yl)-3-(1-hydroxyethyl)-1H-indol-6-yl)(morpholino)methanone]",97
11,"CC(O)c1cn(-c2ncc(-c3ccccc3F)cn2)c2cc(C(=O)N3CCOCC3)ccc12 (single isomer, unassigned) [Example 253, (1-(5-(2-Fluorophenyl)pyrimidin-2-yl)-3-(1-hydroxyethyl)-1H-indol-6-yl)(morpholino)methanone]",120
12,"CC1CC(C)CN(C(=O)c2ccc3c([S+](C)[O-])cn(-c4ncc(-c5ccccc5F)cn4)c3c2)C1 (single isomer, unassigned) [Example 373, (3,5-Dimethylpiperidin-1-yl)(1-(5-(2-fluorophenyl)pyrimidin-2-yl)-3-(methylsulfinyl)-1H-indol-6-yl)methanone]",36
13,"CC1CN(C(=O)c2ccc3c([S+](C)[O-])cn(-c4ncc(-c5ccccc5F)cn4)c3c2)CC(C)O1 (single isomer, unassigned) [Example 377, (2,6-Dimethylmorpholino)(1-(5-(2-fluorophenyl)pyrimidin-2-yl)-3-(methylsulfinyl)-1H-indol-6-yl)methanone]",70
14,"CC1CN(C(=O)c2ccc3c([S+](C)[O-])cn(-c4ncc(-c5ccccc5F)cn4)c3c2)CC(C)O1 (single isomer, unassigned) [Example 378, (2,6-Dimethylmorpholino)(1-(5-(2-fluorophenyl)pyrimidin-2-yl)-3-(methylsulfinyl)-1H-indol-6-yl)methanone]",31
